# Assay results as given in patent US10435405B2, “Pyrazolopyridine compounds and uses thereof” (Incyte Corporation, priority 2016, dated 2019).
# pKi: −log10 of the molar value.
# Target: HPK1 (Homo sapiens (Human), UniProt Q92918)
# Test: HPK1 Kinase Binding Assay
# Procedure, shortened: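 This is a LanthaScreen tracer-binding format: a tracer 222/Eu-anti-GST antibody mix (18 nM and 4 nM solution) is added to active HPK1 (4 nM solution) with 3-fold, 11-point compound dilutions. Incubation is 1 h at 25 °C in HEPES pH 7.5 buffer before reading, and Ki is determined.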
# Sequence of HPK1 (Q92918 1-346): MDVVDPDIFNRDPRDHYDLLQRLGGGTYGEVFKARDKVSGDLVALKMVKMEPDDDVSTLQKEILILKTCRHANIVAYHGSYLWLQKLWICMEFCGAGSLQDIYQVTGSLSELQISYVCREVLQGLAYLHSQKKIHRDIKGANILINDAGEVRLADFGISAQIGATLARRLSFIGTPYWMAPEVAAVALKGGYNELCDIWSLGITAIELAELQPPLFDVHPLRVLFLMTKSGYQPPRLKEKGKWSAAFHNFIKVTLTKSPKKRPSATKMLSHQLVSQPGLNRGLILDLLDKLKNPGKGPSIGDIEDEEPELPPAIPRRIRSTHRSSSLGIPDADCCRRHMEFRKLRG
row,SMILES,pKi
1,"Cn1cc(-c2n[nH]c3cnc(-c4c(F)cc5c(c4F)C(N)CC5)c(F)c23)cn1 (stereo not shown) [Example 216, 5,7-Difluoro-6-(4-fluoro-3-(1-methyl-1H-pyrazol-4-yl)-1H-pyrazolo[3,4-c]pyridin-5-yl)-2,3-dihydro-1H-inden-1-amine]",≥ 7.00
2,"CNCc1cc(F)c(-c2cc3c(-c4cnc(N5CCN(C)CC5)nc4)n[nH]c3cn2)c(F)c1 [Example 217, 1-(3,5-Difluoro-4-(3-(2-(4-methylpiperazin-1-yl)pyrimidin-5-yl)-1H-pyrazolo[3,4-c]pyridin-5-yl)phenyl)-N-methylmethanamine]",≥ 7.00
3,"CNCc1cc(F)c(-c2cc3c(-c4cnc(N5CCC(O)CC5)nc4)n[nH]c3cn2)c(F)c1 [Example 218, 1-(5-(5-(2,6-Difluoro-4-((methylamino)methyl)phenyl)-1H-pyrazolo[3,4-c]pyridin-3-yl)pyrimidin-2-yl)piperidin-4-ol]",≥ 7.00
4,"CNCc1cc(F)c(-c2cc3c(-c4cncc(N5CCN(C)CC5)c4)n[nH]c3cn2)c(F)c1 [Example 219, 1-(3,5-Difluoro-4-(3-(5-(4-methylpiperazin-1-yl)pyridin-3-yl)-1H-pyrazolo[3,4-c]pyridin-5-yl)phenyl)-N-methylmethanamine]",≥ 7.00
5,"CNC1CCc2c1cc(C)c(-c1cc3c(-c4cnn(C)c4)n[nH]c3cn1)c2F (stereo not shown) [Example 220, 4-Fluoro-N,6-dimethyl-5-(3-(1-methyl-1H-pyrazol-4-yl)-1H-pyrazolo[3,4-c]pyridin-5-yl)-2,3-dihydro-1H-inden-1-amine]",≥ 7.00
6,"Cc1c(CN2CC(C)(C)C2)ccc(F)c1-c1cc2c(-c3cnn(C)c3)n[nH]c2cn1 [Example 221, 5-(3-((3,3-Dimethylazetidin-1-yl)methyl)-6-fluoro-2-methylphenyl)-3-(1-methyl-1H-pyrazol-4-yl)-1H-pyrazolo[3,4-c]pyridine]",≥ 7.00
7,"CO[C@H]1C[C@H](NCc2ccc(F)c(-c3cc4c(-c5cnn(C)c5)n[nH]c4cn3)c2C)C1 [Example 222, trans-N-(4-Fluoro-2-methyl-3-(3-(1-methyl-1H-pyrazol-4-yl)-1H-pyrazolo[3,4-c]pyridin-5-yl)benzyl)-3-methoxycyclobutanamine]",≥ 7.00
8,"Cc1c(CNC2CC(C)(C)C2)ccc(F)c1-c1cc2c(-c3cnn(C)c3)n[nH]c2cn1 [Example 223, N-(4-Fluoro-2-methyl-3-(3-(1-methyl-1H-pyrazol-4-yl)-1H-pyrazolo[3,4-c]pyridin-5-yl)benzyl)-3,3-dimethylcyclobutanamine]",≥ 7.00
9,"Cc1c(CNCC2(C)CC2)ccc(F)c1-c1cc2c(-c3cnn(C)c3)n[nH]c2cn1 [Example 224, N-(4-Fluoro-2-methyl-3-(3-(1-methyl-1H-pyrazol-4-yl)-1H-pyrazolo[3,4-c]pyridin-5-yl)benzyl)-1-(1-methylcyclopropyl)methanamine]",≥ 7.00
10,"CNCc1ccc(F)c(-c2cc3c(-c4cnn(C)c4)n[nH]c3cn2)c1C(F)(F)F [Example 225, 1-(4-Fluoro-3-(3-(1-methyl-1H-pyrazol-4-yl)-1H-pyrazolo[3,4-c]pyridin-5-yl)-2-(trifluoromethyl)phenyl)-N-methylmethanamine]",≥ 7.00
11,"Cc1cc(C2COCCN2)cc(F)c1-c1cc2c(-c3cnn(C)c3)n[nH]c2cn1 (stereo not shown) [Example 234, 3-(3-Fluoro-5-methyl-4-(3-(1-methyl-1H-pyrazol-4-yl)-1H-pyrazolo[3,4-c]pyridin-5-yl)phenyl)morpholine]",≥ 7.00
12,"CNCc1cc(F)c(-c2cc3c(-c4cnn(C)c4)n[nH]c3cn2)c(C(F)F)c1 [Example 235, 1-(3-(Difluoromethyl)-5-fluoro-4-(3-(1-methyl-1H-pyrazol-4-yl)-1H-pyrazolo[3,4-c]pyridin-5-yl)phenyl)-N-methylmethanamine]",≥ 7.00
13,"CCNCc1ccc(F)c(-c2cc3c(-c4cnn(C)c4)n[nH]c3cn2)c1C [Example 236, N-(4-Fluoro-2-methyl-3-(3-(1-methyl-1H-pyrazol-4-yl)-1H-pyrazolo[3,4-c]pyridin-5-yl)benzyl)ethanamine]",≥ 7.00
14,"CCNCc1cccc(-c2cc3c(-c4cnn(C)c4)n[nH]c3cn2)c1C(F)(F)F [Example 237, N-(3-(3-(1-Methyl-1H-pyrazol-4-yl)-1H-pyrazolo[3,4-c]pyridin-5-yl)-2-(trifluoromethyl)benzyl)ethanamine]",≥ 7.00
15,"CNC1CCCc2c1ccc(F)c2-c1cc2c(-c3ccc(N4CCN(C)CC4)nc3)n[nH]c2cn1 (stereo not shown) [Example 240, 6-Fluoro-N-methyl-5-(3-(6-(4-methylpiperazin-1-yl)pyridin-3-yl)-1H-pyrazolo[3,4-c]pyridin-5-yl)-1,2,3,4-tetrahydronaphthalen-1-amine]",≥ 7.00
16,"CN1CCN(c2ccc(-c3n[nH]c4cnc(-c5c(F)ccc6c5CCCC6N)cc34)cc2)CC1 (stereo not shown) [Example 241, 6-Fluoro-5-(3-(4-(4-methylpiperazin-1-yl)phenyl)-1H-pyrazolo[3,4-c]pyridin-5-yl)-1,2,3,4-tetrahydronaphthalen-1-amine]",≥ 7.00
